We go through two compounds from PMC6009906, “A new nitrobenzoxadiazole-based GSTP1-1 inhibitor with a previously unheard of mechanism of action and high stability” (Journal of Enzyme Inhibition and Medicinal Chemistry, 2017).

Structures are written as SMILES. pKi: −log10 of the molar value.

For experiment [1], the target named is T1, GSTP1-1 (glutathione transferase P1-1) (Homo sapiens, UniProt P09211). Description: CDNB-GSH conjugation assay in buffer A, pH […] °C (partial, max […] inhibition; K iapp […] without Triton); also intrinsic protein fluorescence quenching with and without GSH. The format is biochemical.
T1 sequence (P09211 2-210): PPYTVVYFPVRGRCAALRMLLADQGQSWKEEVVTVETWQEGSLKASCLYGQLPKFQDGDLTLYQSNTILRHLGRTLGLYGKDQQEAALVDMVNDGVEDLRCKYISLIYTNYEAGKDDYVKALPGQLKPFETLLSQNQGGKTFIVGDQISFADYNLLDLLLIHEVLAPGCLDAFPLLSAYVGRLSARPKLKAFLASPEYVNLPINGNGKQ
Experiment [2] has as its target T1, GSTP1-1 (glutathione transferase P1-1). Description: CDNB-GSH conjugation assay in buffer B (no detergent), pH […] °C. The format is biochemical.

As a reminder, the pKi is −log10 of the Ki, conventionally taken in molar units. `O=C(OCCCCCCSc1ccc([N+](=O)[O-])c2nonc12)c1ccccc1` [compound 2, 6-((7 nitrobenzo[c][1,2,5]oxadiazol-4-yl)thio)hexyl benzoate] gave a pKi in experiment [1] of 5.41.
The compound `CC(=O)OCCCCCCSc1ccc([N+](=O)[O-])c2nonc12` [compound 3, MC2752] showed a pKi in experiment [2] of 6.22.
